# Data reported in patent US20200164100A1, “SURGICAL METHODS EMPLOYING PURIFIED AMPHIPHILIC PEPTIDE COMPOSITIONS” (priority 2013, published 2020).
# System: signal transduction system of living organisms
# Test: Cell culture experiments on bioactivity of the main constituent peptide
# Format: cell-based
# Settings: data not shown
substance,measurement,value
CH3CO-(Arg-Ala-Asp-Ala)4-NH2,bioactivity by acting on the signal transduction system of living organisms,does not exhibit bioactivity
